Results as given in patent US20110020843A1, “LABEL-FREE METHODS RELATED TO PHOSPHODIESTERASES” (priority 2009, published 2011).

Tested on: quiescent A431 cells (endogenous PDE4 isoforms)
Assay: Label-free Epic RWG biosensor DMR assay of PDE inhibitors in synchronized quiescent A431 cells
Format: cell-based, human
Details: A431; 10 micromolar; ultra-high confluent cells, 2 hrs in low CO2 (~2%) (FIG. 12A)
Procedure: Cells were typically grown using ˜1 to 2×10^4 cells per well at passage 3 to 15 suspended in 50 μl of the corresponding culture medium in the biosensor microplate, and were cultured at 37° C. under air/5% CO2 for ˜1 day. Except for A431 which was subject to ˜20 hr starvation through continuously culture in the serum-free DMEM, the other cell types were directly assayed without starvation.
Epic® wavelength interrogation system (Corning Inc., Corning, N.Y.) was used for whole cell sensing. This system consists of a temperature-control unit, an optical detection unit, and an on-board liquid handling unit with robotics. The detection unit is centered on integrated fiber optics, and enables kinetic measures of cellular responses with a time interval of ˜15 sec. The compound solutions were introduced by using the on-board liquid handling unit (i.e., pippetting).
The RWG biosensor is capable of detecting minute changes in local index of refraction near the sensor surface. Since the local index of refraction within a cell is a function of density and its distribution of biomass (e.g., proteins, molecular complexes), the biosensor exploits its evanescent wave to non-invasively detect ligand-induced dynamic mass redistribution in native cells. The evanescent wave extends into the cells and exponentially decays over distance, leading to a characteristic sensing volume of ˜150 nm, implying that any optical response mediated through the receptor activation only represents an average over the portion of the cell that the evanescent wave is sampling. The aggregation of many cellular events downstream the receptor activation determines the kinetics and amplitudes of a ligand-induced DMR.
All studies were carried out at a controlled temperature (28° C.). At least two independent sets of experiments, each with at least three replicates, were performed.
We further examined the DMR signal, if any, of the quiescent A431 cells upon treatment with PDE inhibitors. […] The quiescent A431 cells obtained under the same culture condition were used. Here the initial seeding numbers of cells were relatively low (˜20K cells per well in a 384 well Epic biosensor microplate tissue culture treated). […] After washing with the serum free medium, the cells were continuously cultured in the serum free medium for another 24 hrs to reach a quiescent state. Here the quiescent state was largely achieved through serum withdrawl. […] The cell membrane bound carbonic anahydrase is a known sensor for CO2 level.
In FIG. 4 the quiescent cells were achieved primarily through serum withdrawl. We were interested in the quiescent cells achieved through both contact inhibition and serum withdrawl. To do so, much higher initial seeding numbers of cells (>=25k cells per well for the 384 well Epic biosensor microplate) were used. […] Here both quiescent cells were subject to the same synchronization condition (2 hr incubation in the HBSS assay solution in a low CO2 environment).
Here the quiescent A431 cells were used using 22k cells per well in 384 well Epic biosensor microplates, followed by one day (˜24 hrs) culture in serum medium and 1 day (˜24 hrs) serum free medium, and sequential synchronization in the HBSS buffer solution under a relatively low CO2 environment for 2 hrs. […] For comparison, the DMR signal of cells stimulated with the buffer only (“Vehicle”) were included.

N#CC(C#N)=C(N)/C(C#N)=C/c1cc(O)c(O)c(O)c1 [tyrphostin 51]
primary DMR profile: closely resembled the classic Gs-DMR signals
